Results taken from paper PMC9963121, “Development of Combretastatin A-4 Analogues as Potential Anticancer Agents with Improved Aqueous Solubility” (Molecules, 2023).

How the values were obtained:
[1] = tested on: HCT-116 colorectal cancer cell; assay: MTT cell growth inhibition assay, HCT-116 colorectal cancer cells; format: cell-based, human; details: Homo sapiens, HCT-116; MTT; mean ± SD of three experiments
Description: (§1) Initially, we designed and synthesised seven compounds—9a and 12a1–12a6—and evaluated the anticancer activity and aqueous solubility. We evaluated the cytotoxic effects of these stilbene nitrile analogues against a panel of four human cancer cell lines (HCT-116, BEL-7402, MCF-7 and AGS) and two human non-cancerous normal cell lines (L-02 and MCF-10A), using CA-4 as a control. The compounds were screened for aqueous solubility in 0.01 M PBS using a high throughput UV method. […] It is possible that the size of the nitrogen heterocycle had little effect on the activity of these compounds. […] The aqueous solubility of all the compounds 12a1–12a6 was higher than that of 9a, particularly that of 12a1 and 12a2 containing piperazine rings. […] Of the six compounds with improved aqueous solubility, 12a1 had the best activity.
(§2) All human cell lines were used in this study. AGS gastric cancer cell, BEL-7402 liver cancer cell, HCT-116 colorectal cancer cell, L-02 normal liver cell, MCF-7 breast cancer cell, and MCF-10A normal breast cell were initially purchased from American Type Culture Collection (ATCC, Manassas, VA, USA). RPMI-1640 media, DMEM and FBS, were provided by Gibco Company. The cells were maintained in DMEM or RPMI-1640, supplemented with 10% FBS, 100 IU/mL penicillin and […] streptomycin, and at 37 °C in a humidified atmosphere containing 5% CO2.
(§3) The experiment was carried out according to the method of reference.

MCF-7 breast cancer cell = assay: MTT cell growth inhibition assay, MCF-7 breast cancer cells; format: cell-based; details: Homo sapiens, MCF7, mean ± SD of three experiments
Description: as §1, §2, §3

[2] = Compound stability in rat plasma, HPLC; format: in vitro ADME; details: 37 °C
Protocol: Blood was collected from SD rats (200–250 g, male and female, Animal Experimental Center of Yanbian University) into heparin tubes, and supernatant plasma was collected after centrifugation.
A certain amount of 9a and 12a1 were accurately weighed and mixed with rat plasma. After incubation at 37 ℃ for 0, 6, 12, 24 and 36 h, the plasma samples were treated with methanol and analyzed by HPLC to determine their stability in plasma.
A HITACHI Primaide HPLC liquid chromatography system was equipped and used for all analyses. Chromatographic separation was performed on a Welch Ultimate XB-C18 column (3.9 mm × 150 mm, 5 μm; Welch, China). The analytes were eluted using a gradient method with a flow rate of 1 mL/min. Mobile phase A was Ultra pure water, and mobile phase B was methanol according to the following gradient: (1) The gradient elution conditions of 9a: 0 to 8 min, 55% to 67% B; 8.1 to 15 min, 67% to 90% B; 15.1 to 25 min, 55% B. (2) The gradient elution conditions of 12a1: 0 to 9 min, 55% to 65% B; 9.1 to 12 min, 65% to 75% B; 12.1 to 15 min, 75% to 85% B; 15.1 to 20 min, 90% B; 20.1 to 30 min, 55% B. The injection volume was 3 μL. The column temperature was set at 40 °C. […]
1.6. Plasma stability assessment
Prepare plasma:blood was collected from SD rats (200-250g, male and female, Animal Experimental Center of Yanbian University) into heparin tubes, and supernatant plasma was collected after centrifugation.
A certain amount of 9a and 12a1 were accurately weighed and mixed with rat plasma.
After incubation at 37℃ for 0 h, 6 h, 12 h, 24 h and 36 h, the plasma samples were treated with methanol and analyzed by HPLC to determine their stability in plasma.
Analytical instrument and conditions:
A HITACHI Primaide HPLC liquid chromatography system equipped was used for all analyses. Chromatographic separation was performed on a Welch Ultimate XB-C18 column (3.9 mm × 150 mm, 5 μm; Welch, China). The analytes were eluted using a gradient method with a flow rate of 1 mL/min. Mobile phase A was Ultra pure water, and mobile phase B was methanol according to the following gradient: (1). The gradient elution conditions of 9a: 0 to 8 minutes, 55% to 67% B; 8.1 to 15 minutes, 67% to 90% B; 15.1 to 25 minutes, 55% B. (2). The gradient elution conditions of […]

[3] = Aqueous solubility in 0.01 M PBS, high throughput UV method; format: physicochemical; details: aqueous phosphate buffer, aqueous buffer; sodium phosphate buffer 0.01 M, pH 7.4, 22 ± 2 °C; mean ± SD
Description: as §1
The aqueous solubility was determined as a previously reported procedure. Put simply, a certain amount of powdered compound was placed in a 2 mL centrifuge tube and mixed with an appropriate volume of aqueous phosphate buffer (10 mM, pH 7.4) to make the whole system supersaturated. The mixtures were sonicated (KQ5200DE numerical control ultrasonic cleaner, Kunshan Ultrasonic Instrument Co., Ltd., SuZhou, China) for 20 min. After sonication, the mixture was allowed to equilibrate at RT (22 ± 2 °C) for 1.5 h with vortex shaking (1200 rpm). Then centrifuged at 3000 rpm for 15 min (1-14k, sigma, Darmstadt, Germany), the supernatant was filtered with a 0.22 µM filter membrane. And then, take 150 µL of filtrate and add it to 96-well UV plate with triplicate. Draw 150 μL of blank solution was added into plate as blank control. The 96-well UV plate prepared above was read on a Synergy HTX Multifunctional Microplate Reader (BioTek, Vermont, USA) at 294 nm. The absorbance of the sample was corrected according to the UV response of the sample and blank solution, and the corrected UV response values were used for solubility calculations by bringing into the standard curve of the compound. […]
1.5. Solubility Assessment
The aqueous solubility was determined as previously reported using the high throughput solubility screens procedure published by Bruno Bard et al [9. 10]. Put simply, a certain amount of powdered compound was placed in a 2 ml centrifuge tube and mixed with an appropriate volume of aqueous phosphate buffer (0.01 M, pH 7.4) to make the whole system supersaturated. The mixtures were sonicated (KQ5200DE numerical control ultrasonic cleaner, Kunshan Ultrasonic Instrument Co., Ltd., China) for 20 min. After sonication, the mixture was allowed to equilibrate at room temperature (22 ± 2°C) for 1.5 h with vortex shaking (1200 rpm). Then the centrifuge tube was put into the centrifuge (1-14k, sigma, Germany), centrifuged with 3000 rpm for 15 minutes, 0.22 µM filter membrane filtration supernatant, then take 150 µl filtrate and add it to 96-well UV plate, with three well for each compound. Draw 150 μL blank solution were added into 96 well-plate as blank control. The 96-well UV […]
plate prepared above was read on a SynergyHTX Multifunctional microplate reader (BioTek, USA) at 338 nm (compounds 12a-12d and 15-20) or 370 nm (compounds 9a-d). The absorbance of the sample was corrected according to the UV response of the sample and blank solution, and the corrected UV responses value were used for solubility calculations by bring into the standard curve of the compound. […]

L-02 normal liver cell = assay: MTT cell growth inhibition assay, L-02 normal liver cells; format: cell-based; details: Homo sapiens, mean ± SD of three experiments
Description: as §1, §2, §3

COc1cc(/C(C#N)=C/c2ccc(NC(=O)CN3CCN(C)CC3)cc2)cc(OC)c1OC [12a1]
IC50 [1]: 2.44 ± 0.29 µM
IC50 (MCF-7 breast cancer cell): 16.1 ± 2.7 µM
Decrease of HPLC peak area in rat plasma ([2]; within 36 h, UV 294 nm): ~22%
Plasma stability (in words) ([2]; rat plasma, 24 h): retained plasma stability over 24 h
solubility thermodynamic at 1.5 h [3]: 18.2 ± 0.619 mg/mL
IC50 (L-02 normal liver cell): 32.7 ± 1.44 µM
